One experiment has as its system mice. Nature of the experiment: Marble burying test. Type of experiment: in vivo. The note with it: for Effects on marble burying relative to racemic mirtazapine: Example 4, FIG. 2.
Another experiment concerns Wistar-Kyoto (WKY) rats. The experiment in a line: Cued fear conditioning / extinction training, freezing behavior in WKY rats. The class given is in vivo, rat. The note with it: for Freezing behavior, direction of change vs. vehicle: WKY rats, across days 1 and 3. The source says:
Inbred Wistar-Kyoto (WKY) rats have been used as models of several behavioral deficits, such as stress vulnerability and sleep disturbance.
Fear memories are crucial in psychiatric conditions such as PTSD. Pavlovian fear conditioning (FC) test is a widely-used behavioral assay in rodents for measurement of aversive learning and memory through learned associations between aversive stimulus (a mild electric shock) and a specific cue (e.g., a tone; cued conditioning) or a context in which electric shock had occurred (contextual conditioning). Once the association is established, the conditioned stimulus (CS, i.e. tone or context) can induce fear response in a similar manner to unconditioned stimulus (US, i.e. electric shock). However, if CS repeatedly presents without combination of US, extinction occurs in normal animals. Fear extinction is usually regarded as a new inhibitory learning after repeated or prolonged CS presentations without the US, which causes a gradual decrease in the magnitude and/or frequency of the conditioned response (i.e. freezing response in FC test). Deficits in such inhibitory learning can be regarded as a hallmark of clinical PTSD.
Young adult (about 7 weeks of age), male WKY and Wistar rats purchased from Charles River Laboratory were used in this study. Upon receipt, animals were group-housed (2 per cage) and acclimated for at least 7 days. All rats were examined, handled, and weighed prior to initiation of the study to assure adequate health and suitability. During the course of the study, 12/12 light/dark cycles were maintained. The room temperature was maintained between 20 and 23° C. with a relative humidity maintained around 50%. Rats were randomly assigned to each treatment group. All testing was conducted during the animals' light cycle.
When combined with DSC, the combinations were given in a cocktail 30 minute prior to extinction test • D-CPP-ene (5 mg/kg) was be dissolved in acidified saline and administered s.c 30 min prior to extinction test at a dose volume of 2 ml/kg • Lurasidone (Lur, 0.2 mg/kg was dissolved in saline and administered IP 30 min prior to test at a dose volume of 1 ml/kg • Quetiapine (QTP, 10 mg/kg) was dissolved in acidified saline and administered s.c 30 min prior to test at a dose volume of 1 ml/kg
The experiment was conducted in the fear conditioning system manufactured by Coulbourn Instruments (PA, USA). Animal's body movements are captured with a video system and the FreezeFrame software, and freezing is analyzed automatically by the FreezeView software (Coulbourn Instruments, PA, USA).
Fear Conditioning Training: Animals were exposed to 5 CS-US pairings of a 10 sec tone (70 dB conditioned stimulus/CS) co-terminating with a brief electric shock (0.5 mA for 1.0 sec unconditioned stimulus/US). The 5 CS-US pairings are separated by a 60 sec interval with the first CS at 120 s. The rats stage in boxes for one minute after the last shock before being moved out.
Extinction training: Extinction training was conducted twice at 24 and 72 hr post FC training. A cued FC extinction paradigm was applied. The extinction training was conducted in the “cylinder”, a changed context which is different from the boxes of FC training. The extinction training lasted 32-40 min, including 8-10 identical bins. Each bin includes a 2 min tone period followed by a 2 min no-tone period (inter-trial interval, ITI).
Percent freezing during bins 7-8 of extinction trainings (24 hr and 72 hr) was used to evaluate effectiveness of treatment. Data were analyzed by […] analyses of variance (ANOVA), with treatment/group and extinction stage (cues or bins) set as factors. Fisher LSD method was used in Post hoc comparisons if applicable.

The values that follow come from patent publication US11969431B2, “Formulations for treatment of post-traumatic stress disorder” (Glytech LLC, priority 2017, dated 2024).

In the case of `CN1CCN2c3ncccc3Cc3ccccc3C2C1` (racemic) [Mirtazapine], the “Number of marbles buried compared to vehicle” value (“Number … compared to vehicle” for short) in the experiment with mice (Example 3, mirtazapine 5.5 mg/kg IP 30 min prior to test) is “significantly reduced the number of marbles buried”; with mice (Example 4, mirtazapine 1, 2.5, 5 and 10 mg/kg IP), “significantly reduced the number of marbles buried”.
For the compound `O=C(O)[C@H]1CN(C/C=C/P(=O)(O)O)CCN1` [DCPPene, D-(E)-4-(3-phosphonoprop-2-enyl)piperazine-2-carboxylic acid], the “Percentage WKY animals showing freezing behavior >85% of the time in response to cue stimuli across day 1 and 3 following fear conditioning, Mean” value in the experiment on Wistar-Kyoto (WKY) rats (D-CPP-ene 5 mg/kg s.c. 30 min prior to extinction test) is given as 0.625. For the same compound, the “Freezing behavior, direction of change vs. vehicle” value in the experiment on Wistar-Kyoto (WKY) rats (D-CPP-ene 5 mg/kg s.c.) was “Increase”; with Wistar-Kyoto (WKY) rats (D-CPP-ene 5 mg/kg s.c., listed as D-CPPene), “tended to increase freezing behavior”.
For the compound `O=C1[C@@H]2[C@H]3CC[C@H](C3)[C@@H]2C(=O)N1C[C@@H]1CCCC[C@H]1CN1CCN(c2nsc3ccccc23)CC1` [Lurasidone], the “Percentage WKY animals showing freezing behavior >85% of the time in response to cue stimuli across day 1 and 3 following fear conditioning, Mean” value in the experiment with Wistar-Kyoto (WKY) rats (lurasidone 0.2 mg/kg IP 30 min prior to test) worked out at 0.531.
With `Fc1ccc([C@@H]2CCNC[C@H]2COc2ccc3c(c2)OCO3)cc1` [Paroxetine], the “Number … compared to vehicle” value is listed as “significantly reduced the number of marbles buried” with mice (Example 3, paroxetine 5 mg/kg IP 30 min prior to test) and “significantly reduced the number of marbles buried” with mice (Example 4, paroxetine 5 mg/kg IP).
As for `OCCOCCN1CCN(C2=Nc3ccccc3Sc3ccccc32)CC1` [QTP, Quetiapine], the “Percentage WKY animals showing freezing behavior >85% of the time in response to cue stimuli across day 1 and 3 following fear conditioning, Mean” value in the experiment on Wistar-Kyoto (WKY) rats (quetiapine 10 mg/kg s.c. 30 min prior to test) is 0.625. The “Freezing behavior, direction of change vs. vehicle” value in the experiment with Wistar-Kyoto (WKY) rats (quetiapine 10 mg/kg s.c.) is reported as “Increase”; in the experiment with Wistar-Kyoto (WKY) rats (quetiapine 10 mg/kg s.c., listed as quetiapine), “tended to increase freezing behavior”.
On to `CN1CCN2c3ncccc3Cc3ccccc3[C@@H]2C1` [R-mirtazapine, R-(−)-mirtazapine], for which the “Effects on marble burying relative to racemic mirtazapine” value in the experiment with mice is “less robust”. The “Number … compared to vehicle” value is recorded as “significantly reduced the number of marbles buried” in the experiment on mice (Example 4, R-mirtazapine 10 mg/kg IP); “did not affect this measure” in the experiment on mice (Example 4, R-mirtazapine 1, 2.5 and 5 mg/kg IP). In the experiment with mice (R- vs S-isomer), the “Relative effects of R- and S-isomers of mirtazapine on marble burying (FIG. 2 legend)” value is on record as “greater effects”.
Take `CN1CCN2c3ncccc3Cc3ccccc3[C@H]2C1` [S-mirtazapine, S-(+)-mirtazapine]: the “Effects on marble burying relative to racemic mirtazapine” value with mice was “significantly more robust”. In addition, the “Number … compared to vehicle” value with mice (Example 4, S-mirtazapine 1, 2.5, 5, 10 mg/kg IP) is “significantly reduced the number of marbles buried”. For the same compound, in the experiment with mice (Example 4, S-mirtazapine with or without DCS), the “Marble burying in the absence and presence of DCS” value is listed as “floor level effects”.
As to `CN[C@H]1CC[C@@H](c2ccc(Cl)c(Cl)c2)c2ccccc21` [Sertraline], in the experiment on Wistar-Kyoto (WKY) rats (sertraline 20 mg/kg IP 30 min prior to test), the “Percentage WKY animals showing freezing behavior >85% of the time in response to cue stimuli across day 1 and 3 following fear conditioning, Mean” value is 0.156. In addition, the “Freezing behavior, direction of change vs. vehicle” value with Wistar-Kyoto (WKY) rats (sertraline 20 mg/kg IP) is on record as “Decrease”; in the experiment on Wistar-Kyoto (WKY) rats (sertraline 20 mg/kg IP, listed as sertraline), “significant reduction in freezing behavior”.
